Structures are written as SMILES.

Holding throughout (conditions): incubation time: 72 h
Test [1] has as its system MDA-MB-453. In words: normalised viability (% of control), CellTiter-Blue; higher = more viable cells (about 100 = DMSO control). On the procedure: (§1)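 DSRT, CellTiter-Blue viability, 72 h incubation. Signal is normalised to DMSO and benzethonium chloride controls. Value is the normalised response at dose 9.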
Background: The colour change of resazurin is a common sign of viable cells or microbes.

The subject of test [2] is CAL-148. The test is described as above. The method, then: as §1
In test [3] the test system is CAL-51. Described as above. The method, then: as §1
The subject of test [4] is HDQ-P1. Described as above. On the procedure:
as §1

In test [5] the test system is CAL-85-1. The description is as above. The method, then: as §1
Test [6] concerns DU-4475. The test is described as above. On the procedure: as §1
In test [7] the test system is MDA-MB-453. The test is described as above. On the procedure:
(§2)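 DSRT, CellTiter-Blue viability, 72 h incubation. Signal is normalised to DMSO and benzethonium chloride controls. Value is the normalised response at dose 7.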
This is another data set of the same source.

Test [8] has as its system CAL-148. The test is described as above. On the procedure: as §2
This is another data set of the same source.

The test system of test [9] is CAL-51. The description is as above. On the procedure: as §2
The source holds these as a separate data set.

For test [10], the system named is HDQ-P1. The test is described as above. The method, then:
as §2
This is another data set of the same source.

Test [11] deals with CAL-85-1. Described as above. On the procedure:
as §2
This is another data set of the same source.

For test [12], the system named is DU-4475. The test is described as above. The method, then: as §2
The source holds these as a separate data set.

The next test relates to CAL-120. In words: normalised response (% of control), CellTiter-Glo; higher = more viable cells (100 = DMSO, 0 = benzethonium chloride kill control). The method in brief: (§3)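 CellTox Green fluorescence (485/520 nm) and, after 10 min at room temperature, CellTiter-Glo luminescence were read from breast cancer cell lines incubated 72 h in 384-well plates. Cells were seeded as 20 µl suspension onto compound at 5 concentrations in 10-fold steps over a 10,000-fold range chosen per compound. Each plate was normalised to 0.1 % DMSO (100) and a positive kill control (0). Values are normalised signals, one per concentration.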

For a further test, the system named is MDA-MB-468. The description is as above. The method in brief: as §3
For another test, the system named is HCC1599. The description is as above. The method in brief:
as §3

A further test deals with MDA-MB-231. The test is described as above. The method in brief:
as §3

A further test deals with HCC1143. The description is as above. The method, boiled down: as §3
Test [13] deals with MDA-MB-453. Described as above. The method, boiled down:
as §3

Test [14] has as its system CAL-148. The test is described as above. The method, boiled down: as §3
Test [15] concerns CAL-51. The test is described as above. The method, boiled down: as §3
The test system of another test is MFM-223. The test is described as above. The method, boiled down:
as §3

A further test concerns HCC1937. The test is described as above. The method in brief:
as §3

The next test has as its system Hs578T. Described as above. The method, boiled down: as §3
For another test, the system named is MCF-10A. The description is as above. The method, boiled down:
as §3

The subject of a further test is BT-549. The test is described as above. The method, boiled down: as §3
For another test, the system named is MDA-MB-436. The description is as above. The method, boiled down:
as §3

Test [16] concerns HDQ-P1. Described as above. The method in brief: as §3
Another test has as its system SK-BR-3. The test is described as above. The method, boiled down:
as §3

The test system of another test is BT-474. The test is described as above. The method in brief:
as §3

Test [17] has as its system CAL-85-1. Described as above. The method, boiled down: as §3
Test [18] relates to DU-4475. The description is as above. The method, boiled down: as §3
For test [19], the system named is MDA-MB-453. In words: normalised viability (% of control), CellTiter-Blue; higher = more viable cells (about 100 = DMSO control). On the procedure:
(§4)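 DSRT, CellTiter-Blue viability, 72 h incubation. Signal is normalised to DMSO and benzethonium chloride controls. Value is the normalised response at dose 6.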
The source holds these as a separate data set.

The subject of test [20] is CAL-148. The description is as above. The method, then:
as §4
This is another data set of the same source.

The subject of test [21] is CAL-51. The description is as above. The method, then:
as §4
This is another data set of the same source.

Test [22] deals with HDQ-P1. The description is as above. On the procedure:
as §4
This is another data set of the same source.

For test [23], the system named is CAL-85-1. The test is described as above. The method, then:
as §4
This is another data set of the same source.

Test [24] has as its system DU-4475. The description is as above. The method, then: as §4
The source holds these as a separate data set.

With `COC(=O)C[C@](O)(CCCC(C)(C)O)C(=O)O[C@@H]1C(OC)=C[C@]23CCCN2CCc2cc4c(cc2[C@H]13)OCO4` [Omacetaxine mepesuccinate] (10000 nM), the normalised viability was found to be 2.46% in the test with MDA-MB-453 [1]; 5.68% in the test with CAL-148 [2]; 3.97% in the test on CAL-51 [3]; 15.2% in the test on HDQ-P1 [4]; 2.22% with CAL-85-1 [5]; 1.55% with DU-4475 [6].

As to `O=P(O)(NCCCl)NCCCl` [Ifosfamide mustard] (1000 nM), the normalised viability amounted to 104% in the test on MDA-MB-453 [7]; 111% with CAL-148 [8]; 107% in the test with CAL-51 [9]; 119% in the test on HDQ-P1 [10]; 89.4% with CAL-85-1 [11]; 112% in the test with DU-4475 [12].

Take `COc1cc(Nc2ncc(F)c(Nc3ccc4c(n3)NC(=O)C(C)(C)O4)n2)cc(OC)c1OC` [R406] (10000 nM): the normalised viability in the test on MDA-MB-453 [1] came to 110%; in the test on CAL-148 [2], 99.8%; in the test with CAL-51 [3] it was 97.8%; in the test on HDQ-P1 [4], 108%; with CAL-85-1 [5], 94.6%; in the test on DU-4475 [6], 102%.

`CCCC(CCC)C(=O)O` [Valproic acid] (1000 nM): the normalised viability in the test with MDA-MB-453 [7] worked out at 116%; with CAL-148 [8], 88.8%; in the test with CAL-51 [9], 89.1%; in the test on HDQ-P1 [10], 112%; with CAL-85-1 [11], 90.6%; in the test on DU-4475 [12] it was 94.8%. For the same compound, the normalised response in the test on CAL-120 is 99.9%; in the test with MDA-MB-468, 93.8%; with HCC1599, 31.2%; with MDA-MB-231, 101%; in the test with HCC1143, 103%; in the test on MDA-MB-453 [13], 111%. In addition, the normalised response in the test with CAL-148 [14] was found to be 96.2%; with CAL-51 [15], 70.3%; in the test on MFM-223, 94.5%; in the test on HCC1937 it was 99.5%; in the test with Hs578T it was 103%; in the test with MCF-10A, 98.7%. Besides, the normalised response was 99.8% in the test on BT-549; 95.6% with MDA-MB-436; 103% in the test with HDQ-P1 [16]; 92.3% with SK-BR-3; 103% with BT-474; 93.9% with CAL-85-1 [17]. In the test on DU-4475 [18], this compound gave a normalised response of 94.9%.

For `CCOc1cc2ncc(C#N)c(Nc3ccc(OCc4ccccn4)c(Cl)c3)c2cc1NC(=O)/C=C/CN(C)C` [Neratinib] (30 nM), the normalised viability in the test with MDA-MB-453 [19] turned out to be 81.2%; in the test on CAL-148 [20] it was 85.9%; with CAL-51 [21], 96%; in the test with HDQ-P1 [22] it was 94.3%; in the test on CAL-85-1 [23], 107%; with DU-4475 [24], 100%.

As to `COC1=CC(c2cc3ccccc3[nH]2)=N/C1=C\c1[nH]c(C)cc1C` [Obatoclax] (300 nM), the normalised viability in the test on MDA-MB-453 [19] worked out at 72.2%; in the test on CAL-148 [20], 91.1%; in the test on CAL-51 [21] it was 95.7%; with HDQ-P1 [22], 40.7%; with CAL-85-1 [23], 66.2%; in the test on DU-4475 [24], 75%.

As for `C[C@@H]1C=C2C(=O)O[C@@H]3CC[C@H](C1)[C@]23O` [Galiellalactone] (1500 nM), the normalised viability in the test with MDA-MB-453 [19] is 103%; in the test with CAL-148 [20], 138%; in the test on CAL-51 [21], 106%; in the test with HDQ-P1 [22] it was 65.4%; with CAL-85-1 [23] it was 100%; with DU-4475 [24], 98.1%.

With `COC(=O)C[C@](O)(CCCC(C)(C)O)C(=O)O[C@@H]1C(OC)=C[C@]23CCCN2CCc2cc4c(cc2[C@H]13)OCO4` [Omacetaxine mepesuccinate] (1000 nM), the normalised viability amounted to 15.1% with MDA-MB-453 [7]; 12.4% with CAL-148 [8]; 4.98% in the test on CAL-51 [9]; 13.1% in the test on HDQ-P1 [10]; 3.04% in the test on CAL-85-1 [11]; 9.53% with DU-4475 [12].

Regarding `COc1ccc(C2=N[C@@H](c3ccc(Cl)cc3)[C@@H](c3ccc(Cl)cc3)N2C(=O)N2CCNC(=O)C2)c(OC(C)C)c1` [Nutlin-3] (300 nM), the normalised viability with MDA-MB-453 [19] was 91.2%; in the test with CAL-148 [20], 96.3%; with CAL-51 [21], 99%; with HDQ-P1 [22] it was 66.2%; with CAL-85-1 [23], 89.9%; in the test on DU-4475 [24] it was 84.8%.

As to `CC(C)C[C@H](NC(=O)[C@H](Cc1ccccc1)NC(=O)c1cnccn1)B(O)O` [Bortezomib] (30 nM), the normalised viability was 24% in the test on MDA-MB-453 [19]; 41% in the test with CAL-148 [20]; 67.6% in the test on CAL-51 [21]; 2.53% with HDQ-P1 [22]; 7.63% with CAL-85-1 [23]; 9.69% with DU-4475 [24].

In the case of `c1ccc(C2CN3CCSC3=N2)cc1` (stereo not given) [Tetramisole] (1000 nM), the normalised viability in the test with MDA-MB-453 [7] turned out to be 108%; in the test with CAL-148 [8] it was 131%; in the test on CAL-51 [9] it was 90.2%; in the test on HDQ-P1 [10], 109%; in the test on CAL-85-1 [11], 98.7%; in the test on DU-4475 [12], 74%.
